By Ki is commonly meant a measure of affinity in units of concentration, obtained from inhibition or displacement.

The results in this text go back to BindingDB's records for doi:10.1021/jm000541z (Abbott Laboratories, 2001).

For the experiment, the target named is Alpha-1B adrenergic receptor (Mesocricetus auratus) (UniProt P18841). As to the kind of experiment: Binding affinity to hamster alpha-1B adrenergic receptor.
Chain of Alpha-1B adrenergic receptor (Mesocricetus auratus) (P18841 whole entry, looked up): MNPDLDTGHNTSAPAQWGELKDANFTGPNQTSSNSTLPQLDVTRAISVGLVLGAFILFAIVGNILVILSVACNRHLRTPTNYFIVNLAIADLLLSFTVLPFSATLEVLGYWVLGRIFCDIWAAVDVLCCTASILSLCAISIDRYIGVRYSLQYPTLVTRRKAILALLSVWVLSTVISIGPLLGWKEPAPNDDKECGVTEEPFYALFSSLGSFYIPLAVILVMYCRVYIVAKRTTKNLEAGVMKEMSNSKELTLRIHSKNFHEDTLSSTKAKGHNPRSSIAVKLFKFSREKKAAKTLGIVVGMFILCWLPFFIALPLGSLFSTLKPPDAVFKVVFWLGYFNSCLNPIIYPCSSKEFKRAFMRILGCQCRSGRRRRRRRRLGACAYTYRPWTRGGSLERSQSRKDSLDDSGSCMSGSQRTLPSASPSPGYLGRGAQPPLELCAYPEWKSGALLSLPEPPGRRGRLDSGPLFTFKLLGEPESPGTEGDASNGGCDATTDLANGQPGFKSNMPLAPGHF
As to `COc1ccc2c(=O)n(CCN3C[C@@H]4CCc5c(OC)cccc5[C@@H]4C3)c(=O)[nH]c2c1` [7-Methoxy-3-[2-(6-methoxy-1,3,3a,4,5,9b-hexahydro-benzo[e]isoindol-2-yl)-ethyl]-1H-quinazoline-2,4-dione], the Ki came to 0.66 nM.
`COc1cccc2c1CC[C@H]1CN(CCn3c(=O)[nH]c4c(OC)cccc4c3=O)C[C@@H]21` [8-Methoxy-3-[2-(6-methoxy-1,3,3a,4,5,9b-hexahydro-benzo[e]isoindol-2-yl)-ethyl]-1H-quinazoline-2,4-dione] came in with a Ki of 2.27 nM.
`COc1cccc2c1CC[C@H]1CN(CCn3c(=O)[nH]c4cc(NC(C)=O)ccc4c3=O)C[C@@H]21` [N-{3-[2-(6-Methoxy-1,3,3a,4,5,9b-hexahydro-benzo[e]isoindol-2-yl)-ethyl]-2,4-dioxo-1,2,3,4-tetrahydro-quinazolin-7-yl}-acetamide]: the Ki came to 0.84 nM.
